Reference: publication PMC9196137 (SLAS discovery : advancing life sciences R & D, 2022)

Target: Mcm2–7 complex
Experiment: thermal shift assay
Type: binding, Saccharomyces cerevisiae

Kd: 119 µM
SMILES: CNC(=O)c1cc2c(cn1)[nH]c1ccccc12 [CMA, β-carboline-3-carboxylic acid N-methylamide]
